Measurements from patent publication US20230002324A1, “NAPHTHOQUINONE DERIVATIVES FOR TREATMENT OF OXIDATIVE STRESS DISORDERS” (PTC THERAPEUTICS, INC., priority 2019, published 2023).

Tests used:
[1] = system: Q7 cells (ST HDH Q7/7; immortalized mouse striatal cells); assay: Q7 Cystine Deprivation cell survival (rescue) assay; format: cell-based; conditions: Q7 cells, cystine-free medium, 18 h, Cell Titer Glo, 50% relative viability vs Vitamin K2 (1 micromolar), read-out: Q7 Cystine Deprivation Survival EC50
Summary of the method: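 Cells were seeded at 3,000/well and allowed to attach for 5 h at 33 °C. Wells were then washed twice with PBS and switched to cystine-free DMEM containing FBS, 4 mM L-glutamine, 1 mM pyruvate and 30 mg/L methionine to induce ferroptotic death. Compounds were scored for survival rescue.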

CYP3A4 = target: T1, CYP3A4 (Homo sapiens, UniProt P08684); assay: CYP450 Inhibition Assay 2 (pooled human liver microsomes, 5 concentrations); format: in vitro ADME; conditions: Table 3, HLM 0.05 mg protein/mL, 10 min reaction; for IC50 at 10 min: human, pooled human liver microsomes
T1 construct: from tissue; host or cells: pooled human liver microsomes
T1 sequence (P08684 whole entry): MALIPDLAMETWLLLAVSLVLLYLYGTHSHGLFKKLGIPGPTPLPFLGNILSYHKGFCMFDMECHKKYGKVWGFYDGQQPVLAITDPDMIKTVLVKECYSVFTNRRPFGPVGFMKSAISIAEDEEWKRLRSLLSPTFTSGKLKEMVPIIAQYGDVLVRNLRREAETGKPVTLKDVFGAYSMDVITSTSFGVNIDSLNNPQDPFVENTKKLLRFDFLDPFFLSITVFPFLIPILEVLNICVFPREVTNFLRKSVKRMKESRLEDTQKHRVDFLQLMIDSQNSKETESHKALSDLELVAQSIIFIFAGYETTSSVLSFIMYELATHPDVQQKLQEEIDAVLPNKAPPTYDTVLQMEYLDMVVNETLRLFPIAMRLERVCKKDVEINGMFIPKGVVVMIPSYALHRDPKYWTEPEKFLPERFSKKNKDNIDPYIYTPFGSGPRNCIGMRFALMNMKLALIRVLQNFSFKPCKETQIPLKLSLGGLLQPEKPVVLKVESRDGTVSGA
Experimental: In an alternative experimental design, test compounds were evaluated at 5 concentrations in a 96 well assay plate. Initial combination with pooled human liver microsomes (0.05 mg protein/mL) was followed by a 5 minute incubation. […] The assay plate was incubated for an additional 30 minutes before the reaction was initiated with the addition of NADPH. After 10 minutes of reaction time, the reaction was quenched and samples were analyzed in a similar manner as described above.

[2] = system: Q7 cells (ST HDH Q7/7; immortalized mouse striatal cells); assay: Q7 RSL3 challenge cell survival (rescue) assay; format: cell-based; conditions: Q7 cells, RSL3 2 micromolar, 18 h, Cell Titer Glo, read-out: Q7 RSL3 Survival EC50
From the text: In neuronal cells excess extracellular glutamate inhibits the cystine/glutamate antiporter leading to intracellular cysteine depletion, GSH depletion, reactive oxygen species (ROS) production and cell death, a phenomenon termed oxidative glutamate toxicity, oxytosis, or ferroptosis. […] Q7 cells (ST HDH Q7/7; immortalized mouse striatal cells) challenged with cystine-free media or the selective, irreversible GPX4 inhibitor, methyl (1S,3R)-2-(2-chloroacetyl)-1-(4-(methoxycarbonyl)phenyl)-2,3,4,9-tetrahydro-1H-pyrido[3,4-b]indole-3-carboxylate (hereafter referred to as RSL3), recapitulate this phenotype, as do normal human fibroblasts (NHF) challenged with RSL3. An initial screen was performed to identify compounds effective in rescuing Q7 and/or NHF cells from death resulting from cystine deprivation or RSL3 challenge. This method is further described in Yonezawa et al., J. Neurochem 67, 566-573 (1996), Li et al., J Neurosci., 23, 5816-5826 (2003), Yang and Stockwell, Chem Biol., 15: 234-45 (2008), and Yang et al., Cell 156, 317-331 (2014). See also Hinman A, Holst C R, Latham J C, et al. Vitamin E hydroquinone is an endogenous regulator of ferroptosis via redox control of 15-lipoxygenase. PLoS One. 2018; 13(8):e0201369. Published 2018 Aug. 15. doi:10.1371/journal.pone.0201369; and Kahn-Kirby A H, Amagata A, Maeder C I, et al. Targeting ferroptosis: A novel therapeutic strategy for the treatment of mitochondrial disease-related epilepsy. PLoS One. 2019; 14(3):e0214250. Published 2019 Mar. 28. doi:10.1371/journal.pone.0214250.
DMEM (Catalog no. 11995-040), DMEM without Cystine (Catalog no. 21013-024), DMEM without Glucose (Catalog A1443001), PBS (Phosphate buffered saline), Penicillin-streptomycin mix, L-Glutamine, Glucose, Phenol Red, and Pyruvate were purchased from ThermoFisher Scientific (Gibco). Fetal Bovine Serum was obtained from Mediatech, Inc., or Sigma Aldrich. Mouse striatum derived ST HDH Q7/7 (Q7) and normal human skin fibroblast (NHF, product number GM21811) cells were obtained from the Coriell Institute. Methionine and Vitamin K2 were purchased from Sigma Aldrich. RSL3 was synthesized as previously described (see e.g. US Patent Publication US2010/0081654). Cell Titer Glo 2.0 was purchased from Promega. Q7 cell culture medium (Q7 growth medium) was made by combining 50 mL Fetal Bovine Serum, 100 U/mL penicillin, and 100 microgram/mL streptomycin; DMEM was added to make the volume up to 500 mL. Assay medium for the Cystine Deprivation assay was prepared by combining 50 mL Fetal Bovine Serum, 100 U/mL penicillin, 100 microgram/mL streptomycin, 4 mM L-Glutamine, 1 mM Pyruvate and 30 mg/L Methionine; DMEM without Cystine was added to make the volume up to 500 mL. NHF cell culture medium (NHF growth medium) was made by combining 50 mL Fetal Bovine Serum, 100 U/mL penicillin, 100 microgram/mL streptomycin, 2.8 mL 20% Glucose solution (final concentration 6 mM), L-glutamine (final concentration 2 mM), phenol red (final concentration 15 mg/L); DMEM without Glucose was added to make the volume up to 500 mL. Assay medium for the RSL3 challenge assay was identical to Growth medium. While not in use during the course of the experiments, these solutions were stored at 4° C. The cells were grown in 150-cm^2 tissue culture-treated flasks. Every third or fourth day, the cells were sub-cultured by trypsinization and re-seeded at a cell density of 600,000 (Q7) or 300,000 (NHF) cells per flask.
Q7 or NHF cells were cultured routinely as described herein. For 384-well cell survival assays, cells were seeded in clear bottom, black wall 384-well tissue culture-treated polystyrene plates by re-suspending a cell suspension at a density of 50,000 cells/mL in growth medium, then dispensing 60 microliters of cell suspension per well using either an electronic multichannel pipette or a Multidrop™ Combi Reagent Dispenser (ThermoFisher Scientific), corresponding to 3,000 cells/well. […]

[3] = system: normal human fibroblasts (NHF, GM21811); assay: NHF GM21811 RSL3 challenge cell survival (rescue) assay; format: cell-based; conditions: Fibroblast, NHF cells, RSL3 2 micromolar, 48 h, Cell Titer Glo, read-out: NHF GM21811 RSL3 Survival EC50
Summary of the method: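 Q7 (33° C.) or NHF (37° C.) cells, 3,000/well, attached 5 h, then test compounds at varying final concentrations followed within 15 min by RSL3 (2 micromolar final); 0.3% DMSO. Assay medium identical to growth medium.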

CC1(C2=C(Cc3ccc(C(F)(F)F)cn3)C(=O)c3ccccc3C2=O)CC1 [Example 31, 2-(1-methylcyclopropyl)-3-((5-(trifluoromethyl)pyridin-2-yl)methyl)naphthalene-1,4-dione]
EC50 [1]: < 0.05 µM | IC50 (CYP3A4): 17.4 µM

CC1=C(Cc2ccc(C(=O)O)cn2)C(=O)c2ccccc2C1=O [Example 99, 6-((3-methyl-1,4-dioxo-1,4-dihydronaphthalen-2-yl)methyl)nicotinic acid]
EC50 [1]: > 1 µM | IC50 at 10 min (CYP3A4): ≥ 50 µM

CC1=C(C(C)c2ccccn2)C(=O)c2ccccc2C1=O (stereo not drawn) [Example 24, 2-methyl-3-(1-(pyridin-2-yl)ethyl)naphthalene-1,4-dione]
EC50 [1]: < 0.05 µM | IC50 (CYP3A4): 20.1 µM

CC1=C(Cc2ccc(C(=O)N(C)C(C)C)cn2)C(=O)c2ccccc2C1=O [Example 104, N-isopropyl-N-methyl-6-((3-methyl-1,4-dioxo-1,4-dihydronaphthalen-2-yl)methyl)nicotinamide]
EC50 [1]: < 0.05 µM | IC50 (CYP3A4): 20.7 µM

CCCC1=C(Cc2ccc(C(F)(F)F)cn2)C(=O)c2ccccc2C1=O [Example 109, 2-propyl-3-((5-(trifluoromethyl)pyridin-2-yl)methyl)naphthalene-1,4-dione]
EC50 [1]: < 0.05 µM | IC50 (CYP3A4): 15.6 µM

CC1=C(Cc2ccc(C(N)=O)cn2)C(=O)c2ccccc2C1=O [Example 101, 6-((3-methyl-1,4-dioxo-1,4-dihydronaphthalen-2-yl)methyl)nicotinamide]
EC50 [1]: < 0.05 µM | IC50 (CYP3A4): 23 µM

CC(C)CC1=C(Cc2ccc(C(F)(F)F)cn2)C(=O)c2ccccc2C1=O [Example 29, 2-isobutyl-3-((5-(trifluoromethyl)pyridin-2-yl)methyl)naphthalene-1,4-dione]
EC50 [1]: < 0.05 µM | IC50 (CYP3A4): 21.4 µM

O=C1C(Cc2ccc(F)cn2)=C(C2CC2)C(=O)c2ccccc21 [Example 35, 2-cyclopropyl-3-((5-fluoropyridin-2-yl)methyl)naphthalene-1,4-dione]
EC50 [1]: < 0.05 µM | EC50 [2]: < 0.05 µM | EC50 [3]: < 0.05 µM

CCCC1=C(Cc2ccc(F)c(C)n2)C(=O)c2ccccc2C1=O [Example 118, 2-((5-fluoro-6-methylpyridin-2-yl)methyl)-3-propylnaphthalene-1,4-dione]
EC50 [1]: < 0.05 µM | EC50 [2]: < 0.05 µM | EC50 [3]: < 0.05 µM

CC1=C(Cc2ccc(C(=O)NC3(C)CCC3)cn2)C(=O)c2ccccc2C1=O [Example 103, 6-((3-methyl-1,4-dioxo-1,4-dihydronaphthalen-2-yl)methyl)-N-(1-methylcyclobutyl)nicotinamide]
EC50 [1]: 0.25 to 1 µM | IC50 (CYP3A4): 41.5 µM

CCCC1=C(Cc2ccc(F)cn2)C(=O)c2ccccc2C1=O [Example 116, 2-((5-fluoropyridin-2-yl)methyl)-3-propylnaphthalene-1,4-dione]
EC50 [1]: < 0.05 µM | EC50 [2]: < 0.05 µM | EC50 [3]: < 0.05 µM

Cc1cc(CC2=C(C3CC3)C(=O)c3ccccc3C2=O)ncc1F [Example 120, 2-cyclopropyl-3-((5-fluoro-4-methylpyridin-2-yl)methyl)naphthalene-1,4-dione]
EC50 [1]: < 0.05 µM | EC50 [2]: < 0.05 µM | EC50 [3]: < 0.05 µM

CCCC1=C(Cc2cc(C)c(F)cn2)C(=O)c2ccccc2C1=O [Example 113, 2-((5-fluoro-4-methylpyridin-2-yl)methyl)-3-propylnaphthalene-1,4-dione]
EC50 [1]: < 0.05 µM | EC50 [2]: < 0.05 µM | EC50 [3]: < 0.05 µM

CCN(C(=O)c1ccc(CC2=C(C)C(=O)c3ccccc3C2=O)nc1)C(C)C [Example 102, N-ethyl-N-isopropyl-6-((3-methyl-1,4-dioxo-1,4-dihydronaphthalen-2-yl)methyl)nicotinamide]
EC50 [1]: < 0.05 µM | IC50 (CYP3A4): 8.8 µM

CC(C)(C)CC1=C(Cc2ccc(C(F)(F)F)cn2)C(=O)c2ccccc2C1=O [Example 28, 2-neopentyl-3-((5-(trifluoromethyl)pyridin-2-yl)methyl)naphthalene-1,4-dione]
EC50 [1]: 0.05 to 0.25 µM | IC50 at 10 min (CYP3A4): ≥ 50 µM

Cc1ccc(CC2=C(CCC3COC3)C(=O)c3ccccc3C2=O)nc1 [Example 122, 2-((5-methylpyridin-2-yl)methyl)-3-(2-(oxetan-3-yl)ethyl)naphthalene-1,4-dione]
EC50 [1]: < 0.05 µM | EC50 [2]: < 0.05 µM | EC50 [3]: 0.05 to 0.25 µM

CC1=C(Cc2cc(C(F)(F)F)ccn2)C(=O)c2ccccc2C1=O [Example 9, 2-methyl-3-((4-(trifluoromethyl)pyridin-2-yl)methyl)naphthalene-1,4-dione]
EC50 [1]: < 0.05 µM | IC50 (CYP3A4): 37.2 µM

CC1=C(Cc2ccc(C(=O)NC3CCCC3)cn2)C(=O)c2ccccc2C1=O [Example 100, N-cyclopentyl-6-((3-methyl-1,4-dioxo-1,4-dihydronaphthalen-2-yl)methyl)nicotinamide]
EC50 [1]: 0.05 to 0.25 µM | IC50 at 10 min (CYP3A4): ≥ 50 µM

O=C1C(Cc2ccc(C(F)(F)F)cn2)=C(C2CC2)C(=O)c2ccccc21 [Example 27, 2-cyclopropyl-3-((5-(trifluoromethyl)pyridin-2-yl)methyl)naphthalene-1,4-dione]
EC50 [1]: < 0.05 µM | IC50 (CYP3A4): 11.9 µM

CC1(CCC2=C(Cc3ccc(C(F)(F)F)cn3)C(=O)c3ccccc3C2=O)COC1 [Example 32, 2-(2-(3-methyloxetan-3-yl)ethyl)-3-((5-(trifluoromethyl)pyridin-2-yl)methyl)naphthalene-1,4-dione]
EC50 [1]: < 0.05 µM | EC50 [2]: < 0.05 µM | EC50 [3]: 0.05 to 0.25 µM

CC1=C(Cc2ccc(C(=O)NCC3CC3)cn2)C(=O)c2ccccc2C1=O [Example 105, N-(cyclopropylmethyl)-6-((3-methyl-1,4-dioxo-1,4-dihydronaphthalen-2-yl)methyl)nicotinamide]
EC50 [1]: 0.05 to 0.25 µM | IC50 at 10 min (CYP3A4): ≥ 50 µM

CC1=C(Cc2ccc(C#N)cn2)C(=O)c2ccccc2C1=O [Example 123, 6-((3-methyl-1,4-dioxo-1,4-dihydronaphthalen-2-yl)methyl)nicotinonitrile]
EC50 [1]: < 0.05 µM | IC50 at 10 min (CYP3A4): ≥ 50 µM

O=C1C(CCC2COC2)=C(Cc2ccc(C(F)(F)F)cn2)C(=O)c2ccccc21 [Example 33, 2-(2-(oxetan-3-yl)ethyl)-3-((5-(trifluoromethyl)pyridin-2-yl)methyl)naphthalene-1,4-dione]
EC50 [1]: < 0.05 µM | EC50 [2]: < 0.05 µM | EC50 [3]: 0.05 to 0.25 µM
